The text below walks through data of ChEMBL document CHEMBL3875142, “Quinolino[3,4-b]quinoxalines and pyridazino[4,3-c]quinoline derivatives: Synthesis, inhibition of topoisomerase IIα, G-quadruplex binding and cytotoxic properties” (Eur J Med Chem, 2016).

Molecules are shown by their SMILES. Activity calls are given as the source filed them. No cut-off for these calls is given here.

Experiment [1] is described as follows: Binding affinity to 5'-dabcyl/3'-fluorescein labeled pu27 G-quadruplex DNA (unknown origin) assessed as change in melting temperature at 10 uM by fluorescence assay.
Experiment [2] can be described thus: Binding affinity to 5'-dabcyl/3'-fluorescein labeled duplex DNA (unknown origin) assessed as change in melting temperature at 10 uM by fluorescence assay.
Experiment [3] can be described thus: Binding affinity to 5'-dabcyl/3'-fluorescein labeled cKit G-quadruplex DNA (unknown origin) assessed as change in melting temperature at 10 uM by fluorescence assay.
The species entered for the next experiment is Homo sapiens. The experiment in a line: Binding affinity to 5'-dabcyl/3'-fluorescein labeled human telomeric sequence G-quadruplex DNA assessed as change in melting temperature at 10 uM by fluorescence assay.
Experiment [4] can be described thus: Cytotoxicity against human HeLa cells after 72 hrs by MTT assay. Format: functional, cell-based.
Experiment [5] addresses DNA topoisomerase 2-alpha (Homo sapiens, UniProt P11388). The experiment in a line: Inhibition of human DNA topoisomerase 2alpha-mediated decatenation of kinetoplast DNA after 60 mins by agarose gel electrophoresis.
A short description of experiment [6]: Cytotoxicity against human MCF7 cells after 72 hrs by MTT assay. It is filed as functional, cell-based. The conditions noted are these: MCF7, 72 h. A general note: Formazan colour is commonly taken as a measure of viable cells.
Experiment [7] in a line: Inhibition of Escherichia coli DNA topoisomerase 4 decatenation activity using kinetoplast DNA as substrate after 60 mins by agarose gel electrophoresis.
The nature of experiment [8]: Inhibition of thiazole orange binding to cKit G-quadruplex DNA (unknown origin) by fluorescence assay.
The nature of experiment [9]: Inhibition of thiazole orange binding to human telomeric sequence G-quadruplex DNA by fluorescence assay.
Experiment [10] is described as follows: Inhibition of thiazole orange binding to pu27 G-quadruplex DNA (unknown origin) by fluorescence assay.
A short description of experiment [11]: Inhibition of thiazole orange binding to duplex DNA (unknown origin) by fluorescence assay.
A further experiment concerns Escherichia coli. The experiment in a line: Induction of Escherichia coli pBR322 DNA unwinding at 0.1 to 10 uM after 1 hr by agarose gel electrophoresis.

Sequence of DNA topoisomerase 2-alpha (P11388 whole entry): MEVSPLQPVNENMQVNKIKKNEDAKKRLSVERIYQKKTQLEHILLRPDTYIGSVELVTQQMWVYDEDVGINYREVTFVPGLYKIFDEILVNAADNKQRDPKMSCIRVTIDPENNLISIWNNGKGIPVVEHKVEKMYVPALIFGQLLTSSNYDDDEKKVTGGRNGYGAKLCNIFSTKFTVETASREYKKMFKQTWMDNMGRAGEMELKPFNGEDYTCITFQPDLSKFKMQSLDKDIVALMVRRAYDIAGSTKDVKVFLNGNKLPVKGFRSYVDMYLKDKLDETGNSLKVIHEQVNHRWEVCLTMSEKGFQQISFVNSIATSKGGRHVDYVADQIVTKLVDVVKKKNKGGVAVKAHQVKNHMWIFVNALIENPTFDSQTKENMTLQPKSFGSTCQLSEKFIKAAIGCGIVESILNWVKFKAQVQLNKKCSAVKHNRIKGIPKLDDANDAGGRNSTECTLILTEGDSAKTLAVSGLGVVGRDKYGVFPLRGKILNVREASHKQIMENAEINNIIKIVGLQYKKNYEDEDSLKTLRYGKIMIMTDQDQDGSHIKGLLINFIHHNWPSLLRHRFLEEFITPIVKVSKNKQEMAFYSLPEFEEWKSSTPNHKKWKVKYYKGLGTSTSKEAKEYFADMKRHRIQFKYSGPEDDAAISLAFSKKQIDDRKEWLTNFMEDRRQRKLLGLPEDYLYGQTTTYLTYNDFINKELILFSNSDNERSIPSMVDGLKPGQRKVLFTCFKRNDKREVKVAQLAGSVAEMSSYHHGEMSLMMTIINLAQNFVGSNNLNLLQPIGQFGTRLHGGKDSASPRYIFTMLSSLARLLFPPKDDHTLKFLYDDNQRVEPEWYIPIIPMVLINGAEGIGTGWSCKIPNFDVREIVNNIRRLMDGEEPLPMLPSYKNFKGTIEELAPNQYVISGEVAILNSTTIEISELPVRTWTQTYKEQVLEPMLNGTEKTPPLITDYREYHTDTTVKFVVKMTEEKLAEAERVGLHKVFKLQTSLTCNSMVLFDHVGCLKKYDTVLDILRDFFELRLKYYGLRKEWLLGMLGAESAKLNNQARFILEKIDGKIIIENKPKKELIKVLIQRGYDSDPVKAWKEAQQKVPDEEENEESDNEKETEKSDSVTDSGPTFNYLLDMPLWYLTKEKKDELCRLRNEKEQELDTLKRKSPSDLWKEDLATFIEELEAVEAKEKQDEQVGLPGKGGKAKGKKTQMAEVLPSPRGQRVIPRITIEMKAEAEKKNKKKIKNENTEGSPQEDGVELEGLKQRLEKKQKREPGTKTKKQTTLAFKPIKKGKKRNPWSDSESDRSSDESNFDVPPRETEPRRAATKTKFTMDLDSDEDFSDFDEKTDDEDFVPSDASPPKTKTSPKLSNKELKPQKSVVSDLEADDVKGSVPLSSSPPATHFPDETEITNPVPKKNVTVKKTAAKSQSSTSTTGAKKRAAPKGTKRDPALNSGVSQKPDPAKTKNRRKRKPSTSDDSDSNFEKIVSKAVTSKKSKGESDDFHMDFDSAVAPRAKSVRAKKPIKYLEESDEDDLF

As to `CCN(CC)CCn1c(=O)c2nc3ccccc3nc2c2ccccc21`, the ΔTm in experiment [1] is 3.5 °C; in [2] it was 0.4 °C; in experiment [3] it was 4.5 °C; in the experiment listed under Homo sapiens, 2.3 °C. Moreover, the figures for the half-maximal inhibitory concentration (IC50) in experiment [4] and in experiment [5] were 8.52 µM and 87.6 µM, respectively.
For the compound `O=c1[nH]c2ccccc2c2nc3ccccc3nc12`, the thermal shift (ΔTm) (in experiment [1]; in experiment [2]; in [3]; in the experiment listed under Homo sapiens) was 0 °C throughout. The concentration for half-maximal inhibition (IC50) was 32.7 µM in experiment [6], 19.8 µM in experiment [4], greater than 100 µM in [7] and greater than 100 µM in [5].
For `CN(C)CCNc1nc2ccccc2c2nc3ccccc3nc12`, the shift in melting temperature (ΔTm) in [1] came to 4 °C; in experiment [2], 4.3 °C; in experiment [3], 9.7 °C; in the experiment listed under Homo sapiens, 8.2 °C. Also, the concentration for half-maximal inhibition (IC50) in [6] was 2.34 µM; in experiment [4], 2.98 µM; in [7], greater than 100 µM; in experiment [5], 19.5 µM.
Turning to `O=c1c2nc3ccccc3nc2c2ccccc2n1CCN1CCOCC1`, the ΔTm in [1] stood at 0 °C; in experiment [2], 0 °C; in experiment [3], 0 °C; in the experiment filed under Homo sapiens, 0.8 °C. The half-inhibitory concentration (IC50) in experiment [6], in experiment [4], in [7] and in [5] was greater than 100 µM in each case.
As to `CN(C)CCCCNc1nc2ccccc2c2nc3ccccc3nc12`, the ΔTm was determined as 9.4 °C in [1], 4.2 °C in experiment [2], 11.6 °C in experiment [3] and 9.8 °C in the experiment filed under Homo sapiens. The IC50 in experiment [6] was 1.6 µM; in experiment [4], 2.32 µM; in experiment [7], greater than 100 µM; in experiment [5], 5.14 µM. The half-maximal effective concentration (EC50) in [8] amounted to 0.83 µM; in [9] it was 4.48 µM; in experiment [10] it was 0.57 µM; in experiment [11] it was 1.26 µM.
`CN(C)CCCOc1nc2ccccc2c2nc3ccccc3nc12`: the ΔTm in experiment [1] was 4.1 °C; in experiment [2], 0.5 °C; in experiment [3] it was 3.8 °C; in the experiment listed under Homo sapiens it was 1.4 °C. Also, the results for the half-inhibitory concentration (IC50) in experiment [4] and in [5] were 6.1 µM and 23.8 µM, respectively.
For `CCN(CC)CCCNc1nc2ccccc2c2nc3ccccc3nc12`, the ΔTm worked out at 5.9 °C in experiment [1], 1.5 °C in experiment [2], 4.7 °C in experiment [3] and 2 °C in the experiment listed under Homo sapiens. For the same compound, the results for the IC50 in [4] and in [5] were 6.53 µM and 13.9 µM, respectively.
`O=C1c2ccccc2C(=O)c2c(NCCNCCO)ccc(NCCNCCO)c21` [AMETANTRONE]: the IC50 turned out to be 0.51 µM in experiment [6] and 0.9 µM in experiment [4].
`Cc1cc2c(=O)n(CCN(C)C)c3ccccc3c2nn1`: the ΔTm in experiment [1] stood at 0.6 °C; in [2], 0.2 °C; in experiment [3] it was 2.7 °C; in the experiment listed under Homo sapiens it was 1.2 °C. The half-inhibitory concentration (IC50) is 40.9 µM in experiment [4] and greater than 100 µM in experiment [5].
As to `c1ccc2nc3c(nc2c1)c(NCCN1CCOCC1)nc1ccccc13`, the thermal shift (ΔTm) (in [1]; in experiment [2]; in experiment [3]; in the experiment listed under Homo sapiens) was 0 °C in each case. The IC50 was greater than 100 µM in [6], greater than 100 µM in experiment [4], greater than 100 µM in experiment [7] and 100 µM in [5].
For the compound `CN(C)CCCNc1nc2ccccc2c2nc3ccccc3nc12`, the ΔTm in [1] came to 5.9 °C; in experiment [2], 2.2 °C; in [3], 6.9 °C; in the experiment listed under Homo sapiens, 6.1 °C. For the same compound, the IC50 in experiment [6] is 2.96 µM; in experiment [4] it was 5.37 µM; in experiment [7], greater than 100 µM; in experiment [5], 11.3 µM.
As to `CCN(CC)CCNc1nc2ccccc2c2nc3ccccc3nc12`, the shift in melting temperature (ΔTm) in experiment [1] was 3.8 °C; in experiment [2] it was 1.1 °C; in experiment [3], 5.8 °C; in the experiment filed under Homo sapiens, 1.1 °C. Moreover, the concentration for half-maximal inhibition (IC50) was 6.87 µM in experiment [4] and greater than 100 µM in experiment [5].
Turning to `CCN(CC)CCOc1nc2ccccc2c2nc3ccccc3nc12`, the ΔTm in experiment [1] amounted to 0.8 °C; in experiment [2] it was 0.1 °C; in experiment [3] it was 2.5 °C; in the experiment filed under Homo sapiens it was 1 °C. Besides, the concentration for half-maximal inhibition (IC50) in experiment [4] is 25.4 µM; in experiment [5], greater than 100 µM.
`CN(C)CCCn1c(=O)c2nc3ccccc3nc2c2ccccc21`: the ΔTm in experiment [1] worked out at 5.5 °C; in [2] it was 0.4 °C; in experiment [3], 7.8 °C; in the experiment listed under Homo sapiens, 4.7 °C. The 50% inhibitory concentration (IC50) in experiment [6] is 5.99 µM; in experiment [4] it was 2.04 µM; in [7] it was greater than 100 µM; in experiment [5] it was greater than 100 µM. For the same compound, the results for the EC50 in experiment [8], in experiment [10] and in experiment [11] were 3.57 µM, 1.32 µM and 10.9 µM, respectively.
As for `Cc1cc2c(=O)n(CCCN(C)C)c3ccccc3c2nn1`, the ΔTm turned out to be 2.1 °C in experiment [1], 0.1 °C in [2], 1.8 °C in experiment [3] and 1.7 °C in the experiment listed under Homo sapiens. Besides, the 50% inhibitory concentration (IC50) in [4] is 49.1 µM; in experiment [5], greater than 100 µM.
`CN(C)CCn1c(=O)c2nc3ccccc3nc2c2ccccc21`: the ΔTm in [1] came to 4.1 °C; in [2] it was 0.3 °C; in [3] it was 4.8 °C; in the experiment filed under Homo sapiens, 2.7 °C. For the same compound, the concentration for half-maximal inhibition (IC50) in [4] is 7.18 µM; in experiment [5], 35.6 µM.
Consider `COc1cccc2c1C(=O)c1c(O)c3c(c(O)c1C2=O)C[C@@](O)(C(=O)CO)C[C@@H]3O[C@H]1C[C@H](N)[C@H](O)[C@H](C)O1` [DOXORUBICIN], for which the result in the experiment with Escherichia coli was Active. 3 µM corresponded to half-maximal inhibition in [5] (IC50).
With `CN(C)CCSc1nc2ccccc2c2nc3ccccc3nc12`, the ΔTm in [1] was 8.8 °C; in [2], 4.2 °C; in [3] it was 11.2 °C; in the experiment listed under Homo sapiens, 10.6 °C. The IC50 in experiment [6] is 2.41 µM; in [4] it was 6.03 µM; in [7] it was greater than 100 µM; in experiment [5], 17.8 µM.
With `CN(C)CCCCn1c(=O)c2nc3ccccc3nc2c2ccccc21`, the ΔTm was 6.4 °C in experiment [1], 0.9 °C in experiment [2], 7.4 °C in [3] and 4.8 °C in the experiment listed under Homo sapiens. For the same compound, the IC50 in experiment [4] stood at 11.1 µM; in experiment [5], 34.3 µM.
As for `CO[C@@H]1[C@@H](OC(N)=O)[C@@H](O)[C@H](Oc2ccc3c(O)c(NC(=O)c4ccc(O)c(CC=C(C)C)c4)c(=O)oc3c2C)OC1(C)C` [NOVOBIOCIN], half-maximal inhibition in experiment [7] (IC50) required 63.4 µM.
On to `c1ccc2nc3c(nc2c1)c(NCCN1CCCCC1)nc1ccccc13`, for which the ΔTm in experiment [1] is 1.4 °C; in experiment [2], 1.8 °C; in [3] it was 2 °C; in the experiment filed under Homo sapiens, 0.4 °C. Moreover, the results for the IC50 in experiment [4] and in experiment [5] were 10.3 µM and 19.4 µM, respectively.
Regarding `CN(CCCCCNc1nc2ccccc2c2nc3ccccc3nc12)Cc1ccccc1`, the ΔTm in experiment [1] was 5.9 °C; in experiment [2] it was 0 °C; in experiment [3], 1.5 °C; in the experiment listed under Homo sapiens it was 3.1 °C. For the same compound, the IC50 in experiment [6], in experiment [4], in [7] and in experiment [5] was greater than 100 µM in each case.

What is called ΔTm is the change in melting temperature against a reference sample. As usually defined, the IC50 is the concentration at which inhibition is half-maximal. Higher therefore signals weaker potency in that assay. Broadly, the EC50 is the concentration needed to bring the measured effect to its halfway point.
